Data published in ChEMBL document CHEMBL3739278, “Synthesis and evaluation of novel N-3-benzimidazolephenylbisamide derivatives for antiproliferative and Hedgehog pathway inhibitory activity” (Medchemcomm, 2015).
pIC50: −log10 of the molar value.

Experiments:
[1] = Antiproliferative activity against human SW620 cells assessed as cell growth inhibition after 48 hrs by MTT assay; format: functional, cell-based; settings: SW-620, 48 h
[2] = system: HT-29; experiment: Antiproliferative activity against human HT-29 cells assessed as cell growth inhibition after 48 hrs by MTT assay; format: functional, cell-based; settings: HT-29, 48 h
[3] = Antiproliferative activity against human MGC803 cells assessed as cell growth inhibition after 48 hrs by MTT assay; format: functional, cell-based; settings: MGC-803, 48 h
[4] = Antiproliferative activity against human […] cells assessed as cell growth inhibition after 48 hrs by MTT assay; format: functional, cell-based
[5] = molecular target: Sonic hedgehog protein (Mus musculus, UniProt Q62226); experiment: Inhibition of hedgehog signalling in mouse NIH3T3-Gli-luc cells after 48 hrs by dual luciferase reporter assay; format: cell-based
Sonic hedgehog protein, sequence (Q62226 25-198 limits assumed): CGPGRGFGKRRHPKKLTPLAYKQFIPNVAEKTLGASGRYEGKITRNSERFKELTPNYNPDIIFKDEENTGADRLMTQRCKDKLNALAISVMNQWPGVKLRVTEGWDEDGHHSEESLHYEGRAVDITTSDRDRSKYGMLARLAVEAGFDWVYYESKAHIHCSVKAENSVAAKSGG

[6] = molecular target: Protein smoothened (Homo sapiens, UniProt Q99835); experiment: Displacement of boron-dipyrromethene-cyclopamine from human smoothened receptor expressed in HEK293 cells incubated for 4 hrs by hSMO-BC binding assay; format: cell-based
Protein smoothened, sequence (Q99835 whole entry): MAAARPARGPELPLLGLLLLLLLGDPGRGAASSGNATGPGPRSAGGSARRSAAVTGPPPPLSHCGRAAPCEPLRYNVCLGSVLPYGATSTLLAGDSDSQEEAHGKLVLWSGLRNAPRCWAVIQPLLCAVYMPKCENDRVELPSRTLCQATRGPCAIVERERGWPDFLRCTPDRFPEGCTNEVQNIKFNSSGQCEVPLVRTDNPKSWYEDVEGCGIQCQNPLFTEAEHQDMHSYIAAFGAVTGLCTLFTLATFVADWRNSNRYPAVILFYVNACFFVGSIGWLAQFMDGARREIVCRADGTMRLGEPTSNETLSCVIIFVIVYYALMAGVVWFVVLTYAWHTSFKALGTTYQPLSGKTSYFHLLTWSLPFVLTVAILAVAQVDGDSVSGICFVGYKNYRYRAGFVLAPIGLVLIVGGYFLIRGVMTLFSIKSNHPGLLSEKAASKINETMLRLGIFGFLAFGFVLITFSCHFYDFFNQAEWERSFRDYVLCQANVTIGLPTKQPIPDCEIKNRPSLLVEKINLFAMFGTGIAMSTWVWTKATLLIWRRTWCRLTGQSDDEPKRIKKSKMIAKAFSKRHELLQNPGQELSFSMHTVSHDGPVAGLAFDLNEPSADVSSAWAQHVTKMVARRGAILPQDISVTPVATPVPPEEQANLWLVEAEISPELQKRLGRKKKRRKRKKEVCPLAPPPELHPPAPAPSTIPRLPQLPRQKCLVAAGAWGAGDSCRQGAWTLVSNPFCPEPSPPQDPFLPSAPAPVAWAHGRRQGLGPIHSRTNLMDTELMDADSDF

| pIC50 [2] | pIC50 [5] | pIC50 [6] | SMILES | pIC50 [1] | pIC50 [3] | pIC50 [4] |
| --- | --- | --- | --- | --- | --- | --- |
| 6.12 |  |  | Cc1ccc(NC(=O)NC(=O)c2ccc(OCc3ccccc3F)cc2)cc1-c1nc2ccccc2[nH]1 | 5.39 | 5.60 | 5.74 |
| 4.42 |  |  | Cc1ccc(NC(=O)NC(=O)c2ccc(OCc3cccc(F)c3)cc2)cc1-c1nc2ccccc2[nH]1 | 4.40 | 4.35 | 4.28 |
| 4.79 |  |  | Cc1ccc(NC(=O)NC(=O)c2ccc(OCc3ccccc3)cc2)cc1-c1nc2ccccc2[nH]1 | 4.52 | 4.40 | 4.45 |
| 4.63 |  |  | Cc1ccc(NC(=S)NC(=O)c2ccc(OCc3ccccc3Cl)cc2)cc1-c1nc2ccccc2[nH]1 | 4.24 | 4.35 | 4.29 |
| 5.29 |  |  | Cc1ccc(COc2ccc(C(=O)NC(=O)Nc3ccc(C)c(-c4nc5ccccc5[nH]4)c3)cc2)cc1 | 4.58 | 5.37 | 5.20 |
| 5.05 |  |  | Cc1ccc(NC(=O)NC(=O)c2ccc(OCc3ccccc3Cl)cc2)cc1-c1nc2ccccc2[nH]1 | 4.45 | 4.71 | 4.67 |
| 4.81 |  |  | Cc1ccc(NC(=O)NC(=O)c2ccc(OCc3cccc(Cl)c3)cc2)cc1-c1nc2ccccc2[nH]1 | 4.80 | 4.68 | 4.55 |
| 5.20 |  |  | Cc1ccc(NC(=S)NC(=O)c2ccc(OCc3ccc(Cl)c(Cl)c3)cc2)cc1-c1nc2ccccc2[nH]1 | 4.51 | 5.19 | 5.08 |
| 4.94 |  |  | Cc1ccc(NC(=S)NC(=O)c2ccc(OCc3ccc(Cl)cc3Cl)cc2)cc1-c1nc2ccccc2[nH]1 | 4.24 | 5.46 | 5.28 |
| 5.58 |  |  | Cc1ccc(NC(=O)NC(=O)c2ccc(OCc3ccc(Cl)cc3Cl)cc2)cc1-c1nc2ccccc2[nH]1 | 4.91 | 5.56 | 5.59 |
| 4.20 |  |  | Cc1ccc(NC(=S)NC(=O)c2ccc(OCc3cccc(Cl)c3Cl)cc2)cc1-c1nc2ccccc2[nH]1 | < 4.00 | < 4.00 | < 4.00 |
| 5.99 |  |  | Cc1ccc(NC(=O)NC(=O)c2ccc(OCc3ccc(Cl)c(Cl)c3)cc2)cc1-c1nc2ccccc2[nH]1 | 5.21 | 5.22 | 5.24 |
| 6.23 | 7.60 | 7.72 | O=C(NC(=O)c1ccc(OCc2ccccc2F)cc1)Nc1ccc(Cl)c(-c2nc3ccccc3[nH]2)c1 | 5.53 | 6.92 | 6.06 |
| 6.01 | 7.43 |  | Cc1ccc(NC(=O)NC(=O)c2ccc(OCc3ccc(F)cc3)cc2)cc1-c1nc2ccccc2[nH]1 | 4.45 | 6.80 | 6.62 |
| 4.31 |  |  | Cc1ccc(NC(=O)NC(=O)c2ccc(OCc3cccc(Cl)c3Cl)cc2)cc1-c1nc2ccccc2[nH]1 | 4.38 | < 4.00 | 4.06 |
| 5.22 |  |  | O=C(NC(=S)Nc1ccc(Cl)c(-c2nc3ccccc3[nH]2)c1)c1ccc(OCc2ccc(Cl)cc2Cl)cc1 | 4.30 | 5.52 | 5.43 |

Further lines, the molecule ahead of its results:

| SMILES | pIC50 [2] | pIC50 [5] | pIC50 [6] | pIC50 [1] | pIC50 [3] | pIC50 [4] |
| --- | --- | --- | --- | --- | --- | --- |
| COc1cc(C(=O)NC(=S)Nc2cccc(NC(=O)c3ccccc3)c2)cc(OC)c1OC | 5.18 | 6.19 | 6.55 | 4.67 | 5.06 | 4.86 |
| Cc1ccc(NC(=O)NC(=O)c2ccc(OCc3ccc(C(F)(F)F)cc3)cc2)cc1-c1nc2ccccc2[nH]1 | 5.11 |  |  | 4.82 | 4.83 | 4.77 |
| Cc1ccc(NC(=S)NC(=O)c2ccc(OCc3ccc(C(F)(F)F)cc3)cc2)cc1-c1nc2ccccc2[nH]1 | 4.76 |  |  | 4.14 | 5.19 | 4.99 |
| Cc1ccc(COc2ccc(C(=O)NC(=S)Nc3ccc(C)c(-c4nc5ccccc5[nH]4)c3)cc2)cc1 | 4.85 |  |  | 4.22 | 5.30 | 4.95 |
| Cc1ccc(NC(=S)NC(=O)c2ccc(OCc3cccc(Cl)c3)cc2)cc1-c1nc2ccccc2[nH]1 | 4.45 |  |  | < 4.00 | 4.29 | 4.36 |
| Cc1ccc(NC(=S)NC(=O)c2ccc(OCc3ccccc3F)cc2)cc1-c1nc2ccccc2[nH]1 | 5.73 | 6.80 |  | 5.19 | 5.51 | 5.62 |
| O=C(NC(=O)c1ccc(OCc2ccc(F)cc2)cc1)Nc1ccc(Cl)c(-c2nc3ccccc3[nH]2)c1 | 6.14 | 7.49 | 7.38 | 4.47 | 7.21 | 6.46 |
| O=C(NC(=S)Nc1ccc(Cl)c(-c2nc3ccccc3[nH]2)c1)c1ccc(OCc2ccc(Cl)c(Cl)c2)cc1 | 5.31 |  |  | 4.60 | 5.29 | 5.34 |
| Cc1ccc(COc2ccc(C(=O)NC(=O)Nc3ccc(Cl)c(-c4nc5ccccc5[nH]4)c3)cc2)cc1 | 5.53 |  |  | 4.64 | 5.41 | 5.50 |
| Cc1ccc(NC(=S)NC(=O)c2ccc(OCc3ccc(F)cc3)cc2)cc1-c1nc2ccccc2[nH]1 | 5.72 |  |  | 4.39 | 5.55 | 5.37 |
| Cc1ccc(NC(=S)NC(=O)c2ccc(OCc3cccc(C(F)(F)F)c3)cc2)cc1-c1nc2ccccc2[nH]1 | 5.09 |  |  | 4.81 | 5.28 | 5.22 |
| Cc1ccc(NC(=S)NC(=O)c2ccc(OCc3ccccc3)cc2)cc1-c1nc2ccccc2[nH]1 | 4.54 |  |  | 4.17 | 4.22 | 4.24 |
| O=C(NC(=S)Nc1ccc(Cl)c(-c2nc3ccccc3[nH]2)c1)c1ccc(OCc2ccc(C(F)(F)F)cc2)cc1 | 4.89 |  |  | 4.19 | 5.27 | 5.11 |
| Cc1ccc(NC(=O)NC(=O)c2ccc(OCc3cccc(C(F)(F)F)c3)cc2)cc1-c1nc2ccccc2[nH]1 | 5.45 |  |  | 5.02 | 4.88 | 5.02 |
| Cc1ccc(NC(=S)NC(=O)c2ccc(OCc3cccc(F)c3)cc2)cc1-c1nc2ccccc2[nH]1 | 4.26 |  |  | < 4.00 | < 4.00 | 4.06 |
| CS(=O)(=O)c1ccc(C(=O)Nc2ccc(Cl)c(-c3ccccn3)c2)c(Cl)c1 [VISMODEGIB] | 5.97 | 7.89 |  | 4.96 | 5.62 | 5.54 |
